Legend:
[1] = target: T1, Gamma-aminobutyric acid receptor subunit alpha-1 (Rattus norvegicus, UniProt P62813); assay type: functional
[2] = target: Growth hormone secretagogue receptor type 1 (Homo sapiens, UniProt Q92847)
[3] = target: T2, Amine oxidase [flavin-containing] A (Homo sapiens, UniProt P21397); assay type: functional
T2 sequence (P21397 whole entry): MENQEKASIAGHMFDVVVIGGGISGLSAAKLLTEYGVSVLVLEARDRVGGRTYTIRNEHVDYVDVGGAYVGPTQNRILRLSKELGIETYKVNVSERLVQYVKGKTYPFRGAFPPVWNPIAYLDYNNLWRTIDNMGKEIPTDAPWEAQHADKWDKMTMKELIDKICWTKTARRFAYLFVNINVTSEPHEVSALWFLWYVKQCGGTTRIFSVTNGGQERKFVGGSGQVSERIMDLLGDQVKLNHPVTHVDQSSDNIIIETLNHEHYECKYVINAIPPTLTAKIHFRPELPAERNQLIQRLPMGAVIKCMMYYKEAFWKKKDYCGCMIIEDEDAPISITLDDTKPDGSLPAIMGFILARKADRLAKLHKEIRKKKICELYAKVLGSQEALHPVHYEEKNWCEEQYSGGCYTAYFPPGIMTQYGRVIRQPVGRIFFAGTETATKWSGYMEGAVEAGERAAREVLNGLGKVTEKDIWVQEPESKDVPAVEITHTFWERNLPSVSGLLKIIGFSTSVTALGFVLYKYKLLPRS

Vasopressin V2 receptor = Vasopressin V2 receptor (Homo sapiens, UniProt P30518)
D(1A) dopamine receptor = D(1A) dopamine receptor (Homo sapiens, UniProt P21728); assay type: functional, cell-based
[4] = target: T3, Gastrin/cholecystokinin type B receptor (Homo sapiens, UniProt P32239)
T3 sequence (P32239 whole entry): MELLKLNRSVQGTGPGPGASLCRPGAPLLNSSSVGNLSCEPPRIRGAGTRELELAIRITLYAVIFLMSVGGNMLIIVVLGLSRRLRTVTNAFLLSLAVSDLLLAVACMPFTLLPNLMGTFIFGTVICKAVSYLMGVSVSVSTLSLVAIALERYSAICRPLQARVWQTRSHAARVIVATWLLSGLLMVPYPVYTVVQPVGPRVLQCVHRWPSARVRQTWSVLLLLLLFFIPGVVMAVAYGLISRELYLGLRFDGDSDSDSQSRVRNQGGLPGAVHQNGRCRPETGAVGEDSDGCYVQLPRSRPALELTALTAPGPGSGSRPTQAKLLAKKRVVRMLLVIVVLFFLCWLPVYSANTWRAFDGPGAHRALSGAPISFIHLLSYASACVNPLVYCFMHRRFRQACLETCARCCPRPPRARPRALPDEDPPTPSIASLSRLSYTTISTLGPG

[5] = target: T1, Gamma-aminobutyric acid receptor subunit alpha-1
[6] = target: T4, Alpha-2A adrenergic receptor (Homo sapiens, UniProt P08913); assay type: functional, cell-based
T4 sequence (P08913 whole entry): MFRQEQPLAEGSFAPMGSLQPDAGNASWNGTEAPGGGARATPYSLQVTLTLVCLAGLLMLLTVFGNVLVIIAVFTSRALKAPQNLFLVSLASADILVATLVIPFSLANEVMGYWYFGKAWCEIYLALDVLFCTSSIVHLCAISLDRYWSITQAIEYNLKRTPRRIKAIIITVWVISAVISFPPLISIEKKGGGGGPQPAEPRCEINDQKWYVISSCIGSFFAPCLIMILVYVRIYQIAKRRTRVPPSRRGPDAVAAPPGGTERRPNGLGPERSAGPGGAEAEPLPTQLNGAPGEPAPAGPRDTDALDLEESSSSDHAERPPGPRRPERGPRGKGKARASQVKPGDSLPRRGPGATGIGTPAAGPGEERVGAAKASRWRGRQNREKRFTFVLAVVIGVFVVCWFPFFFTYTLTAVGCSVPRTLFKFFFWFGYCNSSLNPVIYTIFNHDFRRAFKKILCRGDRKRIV

D(3) dopamine receptor = D(3) dopamine receptor (Homo sapiens, UniProt P35462)
[7] = target: T5, Alpha-1A adrenergic receptor (Homo sapiens, UniProt P35348); assay type: functional, cell-based
T5 sequence (P35348 whole entry): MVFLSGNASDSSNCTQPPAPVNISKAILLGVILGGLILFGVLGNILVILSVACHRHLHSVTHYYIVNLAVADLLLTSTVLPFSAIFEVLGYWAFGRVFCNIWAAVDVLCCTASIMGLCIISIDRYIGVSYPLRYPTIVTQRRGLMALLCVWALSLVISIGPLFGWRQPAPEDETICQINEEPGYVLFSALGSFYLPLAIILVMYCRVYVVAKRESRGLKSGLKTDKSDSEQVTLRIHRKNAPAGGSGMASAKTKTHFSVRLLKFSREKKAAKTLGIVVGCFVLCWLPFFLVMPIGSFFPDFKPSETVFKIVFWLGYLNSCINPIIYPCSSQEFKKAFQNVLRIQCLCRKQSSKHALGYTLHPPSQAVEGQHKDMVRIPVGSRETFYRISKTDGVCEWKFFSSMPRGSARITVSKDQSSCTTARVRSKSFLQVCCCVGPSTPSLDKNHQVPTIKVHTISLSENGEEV
Note: assay procedure not described here.

T1 sequence (P62813 whole entry): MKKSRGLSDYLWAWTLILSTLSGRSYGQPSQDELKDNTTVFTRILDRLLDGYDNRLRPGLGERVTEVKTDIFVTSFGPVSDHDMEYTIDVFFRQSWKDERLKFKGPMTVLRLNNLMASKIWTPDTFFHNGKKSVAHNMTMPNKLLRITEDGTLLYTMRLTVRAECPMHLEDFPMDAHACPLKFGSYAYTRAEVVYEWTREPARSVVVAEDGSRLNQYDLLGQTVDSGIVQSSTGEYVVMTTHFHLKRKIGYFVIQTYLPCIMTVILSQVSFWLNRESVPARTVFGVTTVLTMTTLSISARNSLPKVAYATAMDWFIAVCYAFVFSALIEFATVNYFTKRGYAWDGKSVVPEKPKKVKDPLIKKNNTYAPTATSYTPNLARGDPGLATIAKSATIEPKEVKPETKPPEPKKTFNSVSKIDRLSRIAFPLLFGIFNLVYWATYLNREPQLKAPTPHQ
Chain of D(1A) dopamine receptor (P21728 whole entry): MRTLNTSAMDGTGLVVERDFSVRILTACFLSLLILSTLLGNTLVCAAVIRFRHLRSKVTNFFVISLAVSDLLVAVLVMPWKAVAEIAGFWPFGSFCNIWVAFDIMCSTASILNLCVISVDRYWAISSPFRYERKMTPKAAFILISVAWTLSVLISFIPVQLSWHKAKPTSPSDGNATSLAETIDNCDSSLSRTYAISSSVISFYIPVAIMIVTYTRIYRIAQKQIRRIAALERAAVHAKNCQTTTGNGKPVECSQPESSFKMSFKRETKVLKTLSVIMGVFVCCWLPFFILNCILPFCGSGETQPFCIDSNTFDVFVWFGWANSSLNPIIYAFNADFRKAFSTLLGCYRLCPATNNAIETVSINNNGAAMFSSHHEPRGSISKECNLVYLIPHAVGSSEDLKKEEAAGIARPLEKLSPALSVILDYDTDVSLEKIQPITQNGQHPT
Chain of Vasopressin V2 receptor (P30518 whole entry): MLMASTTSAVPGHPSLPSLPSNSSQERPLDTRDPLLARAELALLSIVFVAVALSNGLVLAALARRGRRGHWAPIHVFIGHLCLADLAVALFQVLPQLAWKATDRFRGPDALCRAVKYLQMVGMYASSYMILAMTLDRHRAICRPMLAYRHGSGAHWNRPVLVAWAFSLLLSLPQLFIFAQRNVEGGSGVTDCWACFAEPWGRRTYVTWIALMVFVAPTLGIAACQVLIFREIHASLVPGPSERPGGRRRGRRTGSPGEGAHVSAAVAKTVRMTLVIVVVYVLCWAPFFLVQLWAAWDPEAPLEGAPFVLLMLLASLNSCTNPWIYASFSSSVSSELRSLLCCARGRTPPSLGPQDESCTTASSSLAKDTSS
Chain of Growth hormone secretagogue receptor type 1 (Q92847 whole entry): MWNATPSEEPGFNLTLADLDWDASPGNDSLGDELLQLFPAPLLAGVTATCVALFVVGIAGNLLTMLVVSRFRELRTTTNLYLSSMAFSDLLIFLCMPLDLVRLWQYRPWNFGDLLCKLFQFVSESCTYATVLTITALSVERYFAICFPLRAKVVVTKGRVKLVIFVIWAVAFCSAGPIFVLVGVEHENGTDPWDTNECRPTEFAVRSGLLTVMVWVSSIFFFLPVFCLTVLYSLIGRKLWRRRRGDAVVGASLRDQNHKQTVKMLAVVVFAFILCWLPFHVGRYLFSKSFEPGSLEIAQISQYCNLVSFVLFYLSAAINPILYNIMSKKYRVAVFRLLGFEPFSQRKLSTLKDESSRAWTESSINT
Chain of D(3) dopamine receptor (P35462 whole entry): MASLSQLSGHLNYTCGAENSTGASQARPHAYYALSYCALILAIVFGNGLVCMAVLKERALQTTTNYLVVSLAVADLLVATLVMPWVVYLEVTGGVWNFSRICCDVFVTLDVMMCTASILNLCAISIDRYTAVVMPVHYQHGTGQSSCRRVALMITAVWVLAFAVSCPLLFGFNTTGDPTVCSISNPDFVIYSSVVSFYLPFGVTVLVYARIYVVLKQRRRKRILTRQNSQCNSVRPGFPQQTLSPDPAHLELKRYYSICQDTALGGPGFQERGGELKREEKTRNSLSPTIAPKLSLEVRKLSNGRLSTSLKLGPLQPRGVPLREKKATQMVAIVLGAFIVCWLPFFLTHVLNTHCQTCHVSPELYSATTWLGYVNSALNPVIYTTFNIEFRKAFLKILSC

Row | Compound | AC50 [1] [µM] | AC50 [2] [µM] | AC50 [3] [µM] | AC50 (Vasopressin V2 receptor) [µM] | AC50 (D(1A) dopamine receptor) [µM] | AC50 [4] [µM] | AC50 [5] [µM] | AC50 [6] [µM] | AC50 (D(3) dopamine receptor) [µM] | AC50 [7] [µM]
1 | CCOc1cc([C@@H](CS(C)(=O)=O)N2C(=O)c3cccc(NC(C)=O)c3C2=O)ccc1OC | > 30 | > 30 | > 30 |  | > 30 |  |  | > 30 | > 30 | > 30
2 | Cc1nnc(SCC2=C(C(=O)O)N3C(=O)[C@@H](NC(=O)Cn4cnnn4)[C@H]3SC2)s1 [CEFAZOLIN] | > 300 | > 300 | > 300 | > 30 | > 300 | > 30 |  | > 300 | > 300 | > 300
3 | CC(C)(O/N=C(\C(=O)N[C@@H]1C(=O)N2C(C(=O)[O-])=C(C[n+]3ccccc3)CS[C@H]12)c1csc(N)n1)C(=O)O [CEFTAZIDIME] | > 300 | > 300 | > 300 | > 30 | > 300 | > 30 |  | > 300 | > 300 | > 300
4 | CCCNC(=O)NS(=O)(=O)c1ccc(Cl)cc1 [CHLORPROPAMIDE] | > 10 | > 30 | > 10 | > 30 | > 10 | > 30 | > 10 | > 10 | > 30 | > 30
5 | Clc1ccc(Cn2c(CN3CCCC3)nc3ccccc32)cc1 [CLEMIZOLE] | > 30 | > 30 | > 30 |  | > 30 |  |  | > 10 | > 30 | > 30

Second part, the compound after the results:

Row | AC50 [1] [µM] | AC50 [2] [µM] | AC50 [3] [µM] | AC50 (Vasopressin V2 receptor) [µM] | AC50 (D(1A) dopamine receptor) [µM] | AC50 [4] [µM] | AC50 [5] [µM] | AC50 [6] [µM] | AC50 (D(3) dopamine receptor) [µM] | AC50 [7] [µM] | Compound
6 | > 30 | > 30 | > 30 | > 30 | > 30 | > 10 | > 10 | > 30 | > 30 | > 30 | CCOc1nc2cccc(C(=O)O)c2n1Cc1ccc(-c2ccccc2-c2nnn[nH]2)cc1
7 | > 30 | > 30 | > 30 | > 30 | > 30 | > 30 | > 30 | > 30 | > 30 | > 30 | CC(=O)Nc1ccc(CC(=O)O)cc1 [ACTARIT]
8 | > 30 | > 30 | 26 | > 30 | > 30 | > 10 | > 30 | > 30 | > 30 | > 30 | CC(C(=O)O)c1ccc2oc(-c3ccc(Cl)cc3)nc2c1 (stereo unspecified) [BENOXAPROFEN]
9 | > 30 | > 30 | > 30 | > 30 | > 30 | > 30 |  | > 30 | > 30 | > 30 | CC1(C)S[C@@H]2[C@H](NC(=O)C(C(=O)O)c3ccccc3)C(=O)N2[C@H]1C(=O)O (stereo partly specified) [CARBENICILLIN]
10 | > 30 | > 30 | > 30 | > 30 | > 30 | > 30 | > 30 | > 30 | 26 | > 30 | CC=CC1=C(C(=O)O)N2C(=O)[C@@H](NC(=O)[C@H](N)c3ccc(O)cc3)[C@H]2SC1 [CEFPROZIL]
11 | > 30 | > 30 | > 30 | > 30 | > 30 | > 30 | > 30 | > 30 | > 30 | > 30 | CCC(=O)O[C@]1(C(=O)CCl)[C@@H](C)C[C@H]2[C@@H]3CCC4=CC(=O)C=C[C@]4(C)[C@@]3(F)[C@@H](O)C[C@@]21C [CLOBETASOL PROPIONATE]

From ChEMBL document CHEMBL5291721, “A preclinical secondary pharmacology resource illuminates target-adverse drug reaction associations of marketed drugs” (Nat Commun, 2023)
